Test results as given in EP4273147A1, “SUBSTITUTED SPIROLACTAMS, SALTS THEREOF AND THEIR USE AS HERBICIDALLY ACTIVE SUBSTANCES” (Bayer Aktiengesellschaft, priority 2022, dated 2023).

Key:
ABUTH [1] = assay: Herbicidal pre-emergence action (Table A1); type: in vivo, Abutilon theophrasti; conditions: application rate 1280 g/ha; visual grading after ca. 3 weeks vs untreated controls (100% = plants have died off, 0% = as control plants)
Procedure, shortened: (§1)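 One monocotyledonous and one dicotyledonous weed species shared each pot. Seeds were sown in sandy loam and covered over with soil.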

ECHCG [2] = assay: Herbicidal pre-emergence action (Table A2); type: in vivo, Echinochloa crus-galli; conditions: application rate 320 g/ha; visual grading after ca. 3 weeks
Procedure, shortened: as §1

LOLRI [3] = assay: Herbicidal pre-emergence action (Table A3); type: in vivo, Lolium rigidum; conditions: application rate 320 g/ha; visual grading after ca. 3 weeks
Procedure, shortened: as §1

MATIN [4] = assay: Herbicidal pre-emergence action (Table A4); type: in vivo, Matricaria inodora; conditions: visual grading after ca. 3 weeks
Procedure, shortened: as §1

SETVI [5] = assay: Herbicidal pre-emergence action (Table A5); type: in vivo, Setaria viridis; conditions: visual grading after ca. 3 weeks
Procedure, shortened: as §1

STEME = assay: Herbicidal pre-emergence action (Table A6); type: in vivo, Stellaria media; conditions: application rate 320 g/ha; visual grading after ca. 3 weeks
Procedure, shortened: as §1

POAAN = assay: Herbicidal pre-emergence action (Table A7); type: in vivo, Poa annua; conditions: application rate 320 g/ha; visual grading after ca. 3 weeks
Procedure, shortened: as §1

AMARE = assay: Herbicidal pre-emergence action (Table A8); type: in vivo, Amaranthus retroflexus; conditions: application rate 1280 g/ha; visual grading after ca. 3 weeks vs untreated controls (100% = plants have died off, 0% = as control plants)
Procedure, shortened: as §1

ALOMY [6] = assay: Herbicidal pre-emergence action (Table A9); type: in vivo, Alopecurus myosuroides; conditions: application rate 1280 g/ha; visual grading after ca. 3 weeks
Procedure, shortened: as §1

KCHSC [7] = assay: Herbicidal pre-emergence action (Table A10); type: in vivo, Kochia scoparia; conditions: visual grading after ca. 3 weeks
Procedure, shortened: as §1

VERPE [8] = assay: Herbicidal pre-emergence action (Table A11); type: in vivo, Veronica persica; conditions: application rate 1280 g/ha; visual grading after ca. 3 weeks
Procedure, shortened: as §1

DIGSA [9] = assay: Herbicidal pre-emergence action (Table A12); type: in vivo, Digitaria sanguinalis; conditions: application rate 320 g/ha; visual grading after ca. 3 weeks
Procedure, shortened: as §1

ABUTH [10] = assay: Herbicidal post-emergence action (Table B1); type: in vivo, Abutilon theophrasti; conditions: application rate 1280 g/ha; treated at one-leaf stage; rated visually after about 3 weeks vs untreated controls (100% = plants have died, 0% = like control plants)
Procedure, shortened: (§2)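 Visual rating of activity versus untreated plants about 3 weeks after treatment: 0% means no difference from controls, 100% means complete kill. Test weeds were raised from seed in sandy loam under controlled greenhouse conditions and sprayed at the one-leaf stage.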

ECHCG [11] = assay: Herbicidal post-emergence action (Table B3); type: in vivo, Echinochloa crus-galli; conditions: application rate 1280 g/ha; rated visually after about 3 weeks
Procedure, shortened: as §2

KCHSC [12] = assay: Herbicidal post-emergence action (Table B4); type: in vivo, Kochia scoparia; conditions: application rate 1280 g/ha; rated visually after about 3 weeks
Method: (§3) Seeds of mono- and dicotyledonous weed plants were placed in plastic pots in sandy loam soil (doubly sown with in each case one species of mono- or dicotyledonous weed plants per pot), covered with soil and cultivated in a greenhouse under controlled growth conditions. 2 to 3 weeks after sowing, the test plants were treated at the one-leaf stage. […] After the test plants had been kept in the greenhouse under optimum growth conditions for about 3 weeks, the activity of the preparations was rated visually in comparison to untreated controls. For example, 100% activity = the plants have died, 0% activity = like control plants.

LOLRI [13] = assay: Herbicidal post-emergence action (Table B5); type: in vivo, Lolium rigidum; conditions: application rate 1280 g/ha; rated visually after about 3 weeks
Procedure, shortened: as §2

MATIN [14] = assay: Herbicidal post-emergence action (Table B6); type: in vivo, Matricaria inodora; conditions: application rate 1280 g/ha; rated visually after about 3 weeks
Procedure, shortened: as §2

SETVI [15] = assay: Herbicidal post-emergence action (Table B8); type: in vivo, Setaria viridis; conditions: application rate 1280 g/ha
Procedure, shortened: as §2

VERPE [16] = assay: Herbicidal post-emergence action (Table B10); type: in vivo, Veronica persica; conditions: application rate 1280 g/ha
Procedure, shortened: as §2

DIGSA [17] = assay: Herbicidal post-emergence action (Table B12); type: in vivo, Digitaria sanguinalis; conditions: application rate 1280 g/ha
Method: as §3

ABUTH [18] = assay: Herbicidal pre-emergence action, section C (Table C1); type: in vivo, Abutilon theophrasti; conditions: application rate 320 g/ha; visual grading after ca. 3 weeks
Description: (§5) Seeds of mono- and dicotyledonous weed plants and crop plants were sown, in plastic or organic planting pots, in sandy loam and covered with soil. The compounds according to the invention, formulated in the form of wettable powders (WP) or as emulsifiable concentrates (EC), were applied to the surface of the covering soil as aqueous suspension or emulsion, with the addition of 0.5% of an additive, at an application rate of 600 1 of water/ha (converted). Following treatment, the pots were placed in a greenhouse and kept under optimum growth conditions for the test plants.

ALOMY [19] = assay: Herbicidal pre-emergence action, section C (Table C2); type: in vivo, Alopecurus myosuroides; conditions: application rate 80 g/ha; visual grading after ca. 3 weeks
DIGSA [20] = assay: Herbicidal pre-emergence action, section C (Table C5); type: in vivo, Digitaria sanguinalis; conditions: application rate 80 g/ha; visual grading after ca. 3 weeks
ECHCG [21] = assay: Herbicidal pre-emergence action, section C (Table C6); type: in vivo, Echinochloa crus-galli; conditions: application rate 80 g/ha; visual grading after ca. 3 weeks
LOLRI [22] = assay: Herbicidal pre-emergence action, section C (Table C7); type: in vivo, Lolium rigidum; conditions: application rate 80 g/ha; visual grading after ca. 3 weeks
MATIN [23] = assay: Herbicidal pre-emergence action, section C (Table C8); type: in vivo, Matricaria inodora; conditions: application rate 320 g/ha; visual grading after ca. 3 weeks
Description: as §5

SETVI [24] = assay: Herbicidal pre-emergence action, section C (Table C10); type: in vivo, Setaria viridis; conditions: application rate 80 g/ha; visual grading after ca. 3 weeks
VERPE [25] = assay: Herbicidal pre-emergence action, section C (Table C11); type: in vivo, Veronica persica; conditions: application rate 80 g/ha; visual grading after ca. 3 weeks
VIOTR = assay: Herbicidal pre-emergence action, section C (Table C12); type: in vivo, Viola tricolor; conditions: application rate 80 g/ha; visual grading after ca. 3 weeks
Description: as §5

ZEAMX [26] = assay: Pre-emergence effects on crop plants (Table D1); type: in vivo, Zea mays; conditions: crop plant; application rate 80 g/ha; visual grading after ca. 3 weeks
ALOMY [27] = assay: Herbicidal post-emergence action, section E (Table E2); type: in vivo, Alopecurus myosuroides; conditions: application rate 320 g/ha; assessed visually after ca. 3 weeks
Description: (§4) 2 to 3 weeks after sowing, the test plants were sprayed in the single-leaf stage.

ECHCG [28] = assay: Herbicidal post-emergence action, section E (Table E5); type: in vivo, Echinochloa crus-galli; conditions: application rate 320 g/ha; assessed visually after ca. 3 weeks
Description: as §4

VERPE [29] = assay: Herbicidal post-emergence action, section E (Table E9); type: in vivo, Veronica persica; conditions: application rate 320 g/ha; assessed visually after ca. 3 weeks
Description: as §4

ZEAMX [30] = assay: Post-emergence effects on crop plants (Table F1); type: in vivo, Zea mays; conditions: application rate 80 g/ha, crop plant ZEAMX
Description: as §4

TRZAS = assay: Post-emergence effects on crop plants (Table F2); type: in vivo, Triticum aestivum; conditions: application rate 320 g/ha, crop plant TRZAS
Description: as §4

ORYZA [31] = assay: Post-emergence effects on crop plants (Table F3); type: in vivo, Oryza sativa; conditions: application rate 320 g/ha, crop plant ORYZA
Description: as §4

GLXMA = assay: Post-emergence effects on crop plants (Table F4); type: in vivo, Glycine max; conditions: application rate 80 g/ha, crop plant GLXMA
Description: as §4

BRSNW = assay: Post-emergence effects on crop plants (Table F5); type: in vivo, Brassica napus; conditions: application rate 320 g/ha, crop plant BRSNW
Description: as §4

ORYZA [32] = assay: Pre-emergence effects on crop plants (Table D3); conditions: crop plant; application rate 80 g/ha; visual grading after ca. 3 weeks
Description: Seeds of mono- and dicotyledonous weed plants and crop plants were sown, in plastic or organic planting pots, in sandy loam and covered with soil. The compounds according to the invention, formulated in the form of wettable powders (WP) or as emulsifiable concentrates (EC), were applied to the surface of the covering soil as aqueous suspension or emulsion, with the addition of 0.5% of an additive, at an application rate of 600 1 of water/ha (converted).
Following treatment, the pots were placed in a greenhouse and kept under optimum growth conditions for the test plants.

For `O=C1N(Cc2cccc(F)c2F)CCC12CCCN(Cc1c(F)cccc1F)C2=O` (racemic) [I-015], the “pre-emergence activity against ABUTH” value (ABUTH [1]) was 90%, the “pre-emergence activity against ECHCG” value (ECHCG [2]) was 100% and the “pre-emergence activity against LOLRI” value (LOLRI [3]) was 100%. The “pre-emergence activity against MATIN” value (MATIN [4]; application rate 320 g/ha) was 90%, the “pre-emergence activity against SETVI” value (SETVI [5]; application rate 1280 g/ha) was 100% and the “pre-emergence activity against STEME” value (STEME) was 90%. For the same compound, the “pre-emergence activity against POAAN” value (POAAN) was 100%, the “pre-emergence activity against AMARE” value (AMARE) was 90% and the “pre-emergence activity against ALOMY” value (ALOMY [6]) was 90%. For the same compound, the “pre-emergence activity against KCHSC” value (KCHSC [7]; application rate 320 g/ha) was 90%, the “pre-emergence activity against VERPE” value (VERPE [8]) was 90% and the “pre-emergence activity against DIGSA” value (DIGSA [9]) was 100%. The “post-emergence activity against ABUTH” value (ABUTH [10]) was 90%, the “post-emergence activity against ECHCG” value (ECHCG [11]) was 90% and the “post-emergence activity against KCHSC” value (KCHSC [12]) was 90%. The “post-emergence activity against LOLRI” value (LOLRI [13]) was 90%, the “post-emergence activity against MATIN” value (MATIN [14]) was 90% and the “post-emergence activity against SETVI” value (SETVI [15]) was 90%. The “post-emergence activity against VERPE” value (VERPE [16]) was 90%, the “post-emergence activity against DIGSA” value (DIGSA [17]) was 90% and the “pre-emergence activity against ABUTH” value (ABUTH [18]) was 90%. The “pre-emergence activity against ALOMY” value (ALOMY [19]) was 90%, the “pre-emergence activity against DIGSA” value (DIGSA [20]) was 90% and the “pre-emergence activity against ECHCG” value (ECHCG [21]) was 100%. The “pre-emergence activity against LOLRI” value (LOLRI [22]) was 100%, the “pre-emergence activity against MATIN” value (MATIN [23]) was 90% and the “pre-emergence activity against SETVI” value (SETVI [24]) was 90%. The “pre-emergence activity against VERPE” value (VERPE [25]) was 90%, the “pre-emergence activity against VIOTR” value (VIOTR) was 90% and the “pre-emergence activity against ZEAMX” value (ZEAMX [26]) was 0%. The “post-emergence activity against ALOMY” value (ALOMY [27]) was 80%, the “post-emergence activity against ECHCG” value (ECHCG [28]) was 90% and the “post-emergence activity against VERPE” value (VERPE [29]) was 80%. The “post-emergence activity against ZEAMX” value (ZEAMX [30]) was 0%, the “post-emergence activity against TRZAS” value (TRZAS) was 0% and the “post-emergence activity against ORYZA” value (ORYZA [31]) was 0%. The “post-emergence activity against GLXMA” value (GLXMA) was 20%, the “post-emergence activity against BRSNW” value (BRSNW) was 0% and the “pre-emergence activity against ORYZA” value (ORYZA [32]) was 0%.
With `O=C1N(Cc2ccccc2)CCC12CCCN(Cc1c(F)cccc1F)C2=O` (racemic) [I-089] the “pre-emergence activity against ECHCG” value (ECHCG [2]) was 100%, the “pre-emergence activity against LOLRI” value (LOLRI [3]) was 100% and the “pre-emergence activity against MATIN” value (MATIN [4]; application rate 1280 g/ha) was 90%. The “pre-emergence activity against SETVI” value (SETVI [5]; application rate 320 g/ha) was 100%, the “pre-emergence activity against STEME” value (STEME) was 90% and the “pre-emergence activity against POAAN” value (POAAN) was 100%. For the same compound, the “pre-emergence activity against KCHSC” value (KCHSC [7]; application rate 1280 g/ha) was 90%, the “pre-emergence activity against DIGSA” value (DIGSA [9]) was 90% and the “post-emergence activity against DIGSA” value (DIGSA [17]) was 90%.
